# Where a name gives a salt, the structure may show the parent alone.
# Legend:
# [1] = test system: spontaneous hypertensive male rats (SHR); assay: Efficacy in Diabetic Model: Determination of Blood Sugar Level, non-diabetic SHR; format: in vivo, rat; details: for Blood Sugar Level: SHR (n = 8), mean ± S.E.
# Description: (§1) 5-Week old spontaneous hypertensive male rats (SHR), available from Nippon Charles River, were used. Streptozotocin (STZ) was dissolved in a 0.1M citrate buffer solution (pH 4.5) and injected into the tail vein of the rats at a dose level of 50 mg/kg to prepare diabetic rats. For control, rats received 1 ml/kg of the citrate buffer solution alone through administration to the tail vein. After one week from the STZ administration, blood was taken from the tail vein of the unanesthetized rats, and the blood sugar level was determined. Those rats having a blood sugar level of 300 mg/dl or higher were used as diabetic rats.
# (§2) 6-(1-Imidazolylmethyl)-5,6,7,8-tetrahydronaphthalene- 2-carboxylic acid hydrochloride hemihydrate (hereinafter referred to as Compound A) was dissolved in distilled water and administered orally to the test animals at a dose level of 1 mg/kg/day or 10 mg/kg/day for 5 consecutive months from one week after the administration of STZ or a citrate buffer solution.
# (§3) Just before the administration of Compound A, blood was sampled from the tail vein of the rats without any restriction of diet to determine the blood sugar level using a commercial glucose assay kit (Trade name: New Blood Sugar Test, produced by Boehringer Mannheim Co., Ltd., West Germany). The results are shown in Table 1, expressed as mean ±S.E.
# [2] = test system: streptozotocin-induced diabetic spontaneous hypertensive rats; assay: Efficacy in Diabetic Model: Determination of Blood Sugar Level, STZ-induced diabetic SHR; format: in vivo, rat; details: for Blood Sugar Level: Diabetic SHR (n = 7), mean ± S.E.
# Description: as §1, §2, §3
# diabetic SHR = assay: Determination of Glucose Tolerance in diabetic SHR; format: in vivo, rat; details: for Blood Sugar Level (Effect on Glucose Tolerance): 3 months
# Description: as §1, §2
# After 3 months from the start of the administration of Compound A, the rats were fasted for 18 hours. Glucose was administered orally to the rats at a dose level of 2 g/kg. Blood was sampled from the tail vein of the rats just before the administration of glucose and at 1 hour and 2 hours after the administration to determine the blood sugar lever using the above method. The result was shown in Table 2, expressed as mean +S.E.
# Acute Toxicity in Rats = details: rat, in vivo
# Source text: Acute toxicities of Compound A in rats through oral administration or intravenous injection were as follows.
# [3] = 1 mg/kg/day p.o., 0 weeks (before administration)
# [4] = 10 mg/kg/day p.o., 0 weeks (before administration)
smiles,measurement,setting,value
"O=C(O)c1ccc2c(c1)CCC(Cn1ccnc1)C2 (centres unmarked) [Compound A, 6-(1-Imidazolylmethyl)-5,6,7,8-tetrahydronaphthalene-2-carboxylic acid hydrochloride hemihydrate]",Blood Sugar Level,[1]; [3],100.7 mg/dL
same,Blood Sugar Level,"[1]; 1 mg/kg/day p.o., 2 weeks",95.4 mg/dL
same,Blood Sugar Level,"[1]; 1 mg/kg/day p.o., 8 weeks",94.5 mg/dL
same,Blood Sugar Level,[1]; [4],108.0 mg/dL
same,Blood Sugar Level,"[1]; 10 mg/kg/day p.o., 2 weeks",90.9 mg/dL
same,Blood Sugar Level,"[1]; 10 mg/kg/day p.o., 8 weeks",93.2 mg/dL
same,effect on blood sugar level in SHR,[1]; non-diabetic SHR,not affected
same,effect on blood sugar level of diabetic SHR,[2]; 8 weeks after the start of administration,significantly lowered the blood sugar level
same,Blood Sugar Level,[2]; [3],374.6 mg/dL
same,Blood Sugar Level,"[2]; 1 mg/kg/day p.o., 2 weeks, control 481.5",406.3 mg/dL
same,Blood Sugar Level,"[2]; 1 mg/kg/day p.o., 8 weeks, control 544.2",445.0 mg/dL
same,Blood Sugar Level,[2]; [4],361.4 mg/dL
same,Blood Sugar Level,"[2]; 10 mg/kg/day p.o., 2 weeks, control 481.5, *P < 0.05 vs control",365.2 mg/dL
same,Blood Sugar Level,"[2]; 10 mg/kg/day p.o., 8 weeks, control 544.2, **P < 0.01 vs control",277.3 mg/dL
same,effect on high blood sugar level of diabetic SHR,[2]; from 2 weeks after the start of administration,tendency to lower the high blood sugar level
same,Blood Sugar Level (Effect on Glucose Tolerance),"diabetic SHR; 1 mg/kg/day p.o. (n = 7), 1 hour after glucose load (2 g/kg p.o.), control 329.5",255.4 mg/dL
same,Blood Sugar Level (Effect on Glucose Tolerance),"diabetic SHR; 1 mg/kg/day p.o. (n = 7), 2 hours after glucose load (2 g/kg p.o.), control 280.8",167.3 mg/dL
same,Blood Sugar Level (Effect on Glucose Tolerance),"diabetic SHR; 1 mg/kg/day p.o. (n = 7), just before the glucose load (2 g/kg p.o.), control 178.5",136.8 mg/dL
same,Blood Sugar Level (Effect on Glucose Tolerance),"diabetic SHR; 10 mg/kg/day p.o. (n = 8), 1 hour after glucose load (2 g/kg p.o.), control 329.5, *P < 0.05 vs control",202.4 mg/dL
same,Blood Sugar Level (Effect on Glucose Tolerance),"diabetic SHR; 10 mg/kg/day p.o. (n = 8), 2 hours after glucose load (2 g/kg p.o.), control 280.8",137.1 mg/dL
same,Blood Sugar Level (Effect on Glucose Tolerance),"diabetic SHR; 10 mg/kg/day p.o. (n = 8), just before the glucose load (2 g/kg p.o.), control 178.5",105.1 mg/dL
same,glucose tolerance in the diabetic SHR,"diabetic SHR; rat, in vivo",improved the glucose tolerance
same,LD50,"Acute Toxicity in Rats; iv, female rats",783 mg/kg
same,LD50,"Acute Toxicity in Rats; iv, male rats",807 mg/kg
same,LD50,"Acute Toxicity in Rats; po, female rats",1990 mg/kg
same,LD50,"Acute Toxicity in Rats; po, male rats",2440 mg/kg
